Laboratory results published in US20200246365A1, “COMPOUNDS, PHARMACEUTICAL COMPOSITIONS AND USE THEREOF AS INHIBITORS OF RAN GTPASE” (THE ROYAL INSTITUTION FOR THE ADVANCEMENT OF LEARNING / …, priority 2017, published 2020).

Key:
[1] = biological target: T1, recombinant human Ran protein (Homo sapiens, UniProt P62826); test: Surface Plasmon Resonance (SPR) binding to immobilized Ran
T1 construct: Recombinant Ran protein was purchased from Sigma-Aldrich Inc. (R3152)
Method: SPR experiments were carried out using the Biacore 3000 system. Recombinant Ran protein was purchased from Sigma-Aldrich Inc. (R3152). The running buffer contained PBS, pH7.4, 1 mM GDP, 2 mM MgCl2 and 0.2% DMSO. The regeneration buffer contained 10 mM glycine (pH 2.5). Ran-GDP protein was immobilized onto a CM5 chip; samples of compounds in running buffer were injected at 30 μL/min for 10 minutes contact time followed by 5 minutes regeneration. Kd was calculated using the GraphPad Prism 5 software.

ARPE-19 cells [2] = test: Clonogenic survival assay, ARPE-19; assay type: cell-based, human; details: for effect on normal ARPE-19 cell line in detailed clonogenic assay: different concentrations
Method: (§1) The human EOC cell lines used (TOV81D, TOV112D, OV90, TOV21G, OV866(2), TOV1369(R), OV1369(R2), TOV1946, OV1946, TOV2295(R), OV4485) were derived in our laboratory from patients' tumors (TOV) or ascites (OV). All EOC cell lines were maintained in a low oxygen condition of 7% O2 and 5% CO2 and grown in OSE medium (Wisent, Montreal, QC) supplemented with 10% FBS (Wisent), 0.5 μg/mL amphotericin B (Wisent) and 50 μg/mL gentamicin (Life Technologies Inc., Burlington, ON). The human retinal epithelial cell line ARPE-19 was purchased from American Type Culture Collection (ATCC, Manassas, Va.) and maintained in DMEM-F12 (Wisent) supplemented with 10% FBS (Wisent), 0.5 μg/mL amphotericin B (Wisent) and 50 μg/mL gentamicin (Life Technologies Inc.).
(§2) Clonogenic assays were performed as previously described. Colonies were counted under a stereo microscope and reported as percent of control. IC50 values were determined using Graph Pad Prism 5 software (GraphPad Software Inc., San Diego, Calif.). Each experiment was performed in duplicate and repeated three times. Sensitivity of the cell lines to small molecules inhibitors of Ran was assessed using a concentration range of 0-50 μM.
(§3) Small molecules inhibitors of Ran were dissolved in 100% dimethyl sulfoxide (DMSO) and then further diluted in complete culture media for in vitro experiments. Drugs were added 24 hours after seeding.

TOV112D cells [3] = test: Clonogenic survival assay, TOV112D; assay type: cell-based, human; details: for IC50: Homo sapiens, read-out: IC50 value for the TOV112D cell line by clonogenic assay; for IC50 / IC50 value for the TOV112D cell line by clonogenic assay: TOV112D
Method: as §1, §2, §3

Ran-GTP [4] = biological target: T2, Ran-GTP (Homo sapiens, UniProt P62826); test: Ran activation (Ran-GTP pull-down) assay in TOV112D cells; assay type: cell-based; details: 1 hour treatment, vs DMSO
Method: Cells were seeded onto 6-well tissue culture plates in such a way that cell confluence reaches approximately 70% the day of experiment. The day of experiment cells were treated for 1 hour with the indicated compounds prior to protein extraction and quantification. Assays were performed using the Ran activation assay kit (Cell Biolabs). Briefly, 400 μg of lysates were incubated for one hour at 4° C. with agarose beads conjugated to RANBP1, which specifically binds Ran-GTP. Beads were pelleted, washed, and re-suspended in SDS-PAGE buffer, followed by immunoblotting with an anti-Ran antibody.

ARPE-19 cells [5] = test: IncuCyte cell proliferation assay, ARPE-19; assay type: cell-based, human; details: for cell growth of ARPE-19 (new M36 analogs screen): 40 μM; for effect on normal ARPE-19 cells at low concentrations: 0.5 to 2.5 μM
Method: as §1
(§4) Cells (2,000 cells/well) were plated in a 96-well plate. The next day, compounds were added at the indicated concentrations. Following treatment, cell confluence was imaged by phase contrast using the IncuCyte live cell monitoring system (Essen BioScience, Ann Arbor, Mich.). Frames were captured at 2-hour intervals using a 10× objective. For Ran knock down experiments, cells were seeded in a 96-well plate (4,000 cells/well) directly after transfection. Cell confluence monitoring started the next day as described above.
as §3

TOV112D cells [6] = test: IncuCyte cell proliferation assay, TOV112D; assay type: cell-based, human; details: for cell growth of TOV112D (new M36 analogs screen): 40 μM
Method: as §1, §4, §3

[7] = tested on: breast cancer cell lines (MDA231, MDA468, HCC1806, ZR75, T47D, BT474, HCC1954); test: Cell proliferation, breast cancer cell lines; assay type: cell-based
[8] = Pharmacokinetics in CD1 mice; assay type: in vivo; details: 50 mg/kg
Method: For the pharmacokinetic studies, 6-week-old female CD1 mice (Charles River laboratories, Senneville, QC, Canada) received a single intravenous or intraperitoneal injection of M36 or QR20 (50 mg/kg), dissolved in DMSO 10%, Kolliphor® EL 10%, PEG-400 20% and PBS 60% (QR20 was also dissolved in DMSO 10%, PBS 90%). For each time point (15 minutes, 30 minutes, […], 1 hour, 2 hours and 6 hours), 3 mice were sacrificed and blood was collected by cardiac puncture. Thereafter, the plasma level of each compound was measured by mass spectrometry.

[9] = Tolerance test in NRG mice; assay type: in vivo; details: daily i.p. 75 mg/kg for 15 days
Method: For the tolerance test, M36 and QR20 compounds were dissolved in DMSO 10%, Kolliphor® EL 10%, PEG-400 20% and PBS 60% and injected intraperitoneally into 6-week-old female Nod Rag Gamma (NRG) mice (The Jackson laboratory, Bar Harbor, Me.) daily at 75 mg/kg. During this study, mice (n=3) were monitored for survival and weight loss/gain.

[10] = tested on: other aneuploid EOC cells; test: IncuCyte cell proliferation assay, other aneuploid EOC cell lines; assay type: cell-based, human; details: 80 μM
Method: as §1, §4, §3

Ran-GTP [11] = biological target: T2, Ran-GTP; test: Ran-GTP immunofluorescence in TOV112D cells; assay type: cell-based; details: TOV112D cells vs DMSO-treated
Method: M36 and R28-treated and control TOV112D cells grown on coverslips were washed with 1×PBS, fixed in 4% paraformaldehyde and permeabilized with 0.25% Triton X-100 (Sigma-Aldrich Inc.). After blocking (4% BSA and 4% FBS in PBS), coverslips were incubated with the monoclonal anti-RanGTP antibody (26915, NewEastBioscences) diluted 1:100 in blocking buffer for 2 hours at room temperature. Subsequently, samples were incubated with Cy-5 secondary antibody (1:500, Life Technologies Inc.) for 1 hour and coverslips were mounted onto slides using Prolong® Gold anti-fade reagent with DAPI (Life Technologies Inc.). Samples were visualized under a Zeiss microscope (Zeiss observer Z1) with a 20× objective.

[12] = tested on: prostate cancer cell lines (LNCaP, 22RV1, PC3, DU145); test: Cell proliferation, prostate cancer cell lines; assay type: cell-based
cleaved PARP = test: Apoptosis by PARP cleavage (Western blot); assay type: cell-based, human; details: 96 hours after treatment
Method: Cells were lysed with RIPA buffer containing protease inhibitors. Whole cell lysates were run through a Bradford assay (Thermo Fisher Scientific) for protein quantification. Around 25-50 μg of proteins were separated onto 12.5% SDS-PAGE and transferred onto nitrocellulose membranes. The resultant blots were probed with Ran (1:10000, sc-271376 Santa Cruz Biotechnology, Dallas, Tex.), cleaved PARP (1:1000, #9541, Cell Signaling Technology Inc., Danvers, Mass.), GAPDH (1:2500, #2118, Cell Signaling Technology Inc.) or beta-actin (1:50000, ab6276, Abcam Inc., Toronto, ON, Canada) primary antibodies overnight at 4° C. then with peroxidase-conjugated secondary antibodies for 2 hours at room temperature. Proteins were detected using enhanced chemiluminescence (Thermo Fisher Scientific).

## NC(=S)[C@@H]1C[C@H](COC(=O)c2ccccc2)[C@@H](OC(=O)c2ccccc2)[C@H]1OC(=O)c1ccccc1 [M26]
[1]; different compound concentrations, reached saturation
  binding to the immobilized Ran protein: concentration-dependent binding
ARPE-19 cells [2]; single dose 10 μM
  colony formation of ARPE-19 cells: not normal cells
TOV112D cells [3]; single dose 10 μM
  colony formation of TOV112D cells: specifically inhibited colony formation of EOC
Ran-GTP [4]
  active Ran-GTP levels (pull-down): marked decrease in Ran-GTP levels

## NC(=S)[C@H]1O[C@H](COCc2ccccc2F)[C@@H](OCc2ccccc2F)[C@H]1OCc1ccccc1F [M46]
TOV112D cells [3]
  IC50: 12.5 ± 0.36 µM
Ran-GTP [4]
  active Ran-GTP levels (pull-down): weaker than that of M36

## Fc1ccc(CNCc2cc(CNCc3ccc(F)cc3)cc(CNCc3ccc(F)cc3)c2)cc1 [M48]
TOV112D cells [3]
  IC50 value for the TOV112D cell line by clonogenic assay: low IC50 values
ARPE-19 cells [5]; day 4
  cell growth of ARPE-19 (new M36 analogs screen): completely inhibited cell growth
ARPE-19 cells [5]
  effect on normal ARPE-19 cells at low concentrations: also affected normal ARPE-19 cells
TOV112D cells [6]; day 4
  cell growth of TOV112D (new M36 analogs screen): completely inhibited cell growth

## c1ccc(CNCc2cc(CNCc3ccccc3)cc(CNCc3ccccc3)c2)cc1 [M51]
[7]
  effect on breast cancer cell lines: effective in one triple negative breast cancer cell line
TOV112D cells [3]
  IC50: ~0.66 µM
ARPE-19 cells [5]; day 4
  cell growth of ARPE-19 (new M36 analogs screen): completely inhibited cell growth
ARPE-19 cells [5]
  effect on normal ARPE-19 cells at low concentrations: did not affect normal cells
TOV112D cells [6]; day 4
  cell growth of TOV112D (new M36 analogs screen): completely inhibited cell growth
TOV112D cells [6]; 0.5, 1, 2.5 μM
  TOV112D cell growth at low concentrations: inhibited TOV112D cell growth

## COc1ccc(CNCc2cc(CNCc3ccc(OC)cc3)cc(CNCc3ccc(OC)cc3)c2)cc1 [M52]
TOV112D cells [3]
  IC50 value for the TOV112D cell line by clonogenic assay: low IC50 values
ARPE-19 cells [5]; day 4
  cell growth of ARPE-19 (new M36 analogs screen): completely inhibited cell growth
ARPE-19 cells [5]
  effect on normal ARPE-19 cells at low concentrations: also affected normal ARPE-19 cells
TOV112D cells [6]; day 4
  cell growth of TOV112D (new M36 analogs screen): completely inhibited cell growth

## COc1ccc(CN(C)Cc2cc(CN(C)Cc3ccc(OC)cc3)cc(CN(C)Cc3ccc(OC)cc3)c2)cc1 [M55]
TOV112D cells [3]
  IC50: 4.16 µM
TOV112D cells [6]; day 4
  cell growth of TOV112D (new M36 analogs screen): discriminative effect between normal ARPE-19 and aneuploid TOV112D cells
TOV112D cells [6]; 5, 10, 20 μM
  cell growth of TOV112D, detailed proliferation assay: specifically inhibit cell growth of the TOV112D cells even at a low concentration of 5 μM

## c1ccc(CN2CCN(C(c3ccccc3)C3CCCCC3)CC2)cc1 (stereo not shown) [QR20]
[8]
  pharmacokinetics profile based on AUC values: good pharmacokinetics profiles
ARPE-19 cells [5]; 20, 40, 80 μM
  ARPE-19 cell proliferation, R20 salts: without affecting the normal ARPE-19 cells
[9]
  tolerance: well tolerated
  weight loss: no weight loss
TOV112D cells [6]; 20, 40, 80 μM
  TOV112D cell proliferation, R20 salts: exactly the same activity to inhibit TOV112D cell proliferation

## c1ccc(CN2CCN(C(c3ccccc3)C3CCCCC3)CC2)cc1 (stereo not shown) [R20]
[10]
  cell proliferation of other aneuploid EOC cells: inhibited cell proliferation
ARPE-19 cells [2]
  effect on normal ARPE-19 cell line in detailed clonogenic assay: no effect
TOV112D cells [3]
  IC50: 9.91 ± 0.36 µM
TOV112D cells [6]; 80 μM, vs normal ARPE-19
  cell proliferation of TOV112D (1292 analogs screen): greater efficacy in inhibiting cell proliferation
Ran-GTP [4]
  active Ran-GTP levels (pull-down): concentration-dependent decrease in Ran-GTP levels

## COc1ccc(CN2CCN(Cc3ccc(OC)c(N(C(=O)Nc4cccc(F)c4)C(=O)Nc4cccc(F)c4)c3)CC2)cc1 [R28]
Ran-GTP [11]
  Ran-GTP levels by immunofluorescence: very low levels of active Ran-GTP
[7]
  effect on breast cancer cell lines: effective in both cancer types
TOV112D cells [3]
  IC50: 2.99 ± 0.19 µM
ARPE-19 cells [5]; 20, 40 and 80 μM, day 4
  proliferation of ARPE-19 cells (R20 analogs screen): without affecting normal ARPE-19 cells
TOV112D cells [6]; 20, 40 and 80 μM, day 4
  proliferation of TOV112D cells (R20 analogs screen): more efficient than compound R20 to inhibit proliferation of TOV112D cells
[12]
  effect on prostate cancer cell lines: effective in both cancer types

## Oc1ccc(CCCCCCc2ccc(O)cc2)cc1 [V188]
[1]; Ran-GDP immobilized on CM5 chip
  Kd: 0.38 µM
TOV112D cells [3]
  IC50: 7.6 ± 0.32 µM

## COc1ccc(CN2CCN(Cc3ccc(OC)cc3)CC2)cc1 [compound 1292]
[10]
  cell proliferation of other aneuploid EOC cells: inhibited cell proliferation
ARPE-19 cells [2]
  effect on normal ARPE-19 cell line in detailed clonogenic assay: did not have any effect
TOV112D cells [3]
  IC50: 15 ± 0.37 µM
Cleaved PARP
  apoptosis (cleaved PARP on Western blot): induction of apoptosis
Ran-GTP [4]
  active Ran-GTP levels (pull-down): concentration-dependent decrease in Ran-GTP levels
